In patent publication US20010029636A1, “Hair bleaching and colouring compositions” (priority 1999, published 2001):

Assay: Cuticle abrasion method after bleaching of hair switches
Conditions: solution 2 versus solution 1
Description: The bleaching solutions 1 and 2 were each divided into three parts A, B and C. A was adjusted to pH 9.7, B to pH 10.1 and C to pH 10.5. Each solution was adjusted to the required pH with ammonium hydroxide (ex sigma, 28.1% active). The six solutions were each dosed (1.6 ml/g hair) onto a separate Spanish hair switch (8 g, 8″, ex Hugo Royer Hair Suppliers) in a disposable petri dish using an automatic pipette. Each switch was then agitated for 90 sec using a spoon ended plastic spatula. […] Each switch was then rinsed and left to dry naturally. Step 3: Cuticle Abrasion Method This method provides a measure of the extent of hair damage following the bleaching step. […] Rinse and repeat. The base wash used is 12% SLES, 2% CAPB in water. Dry them overnight. […] Record the initial weight of the hair. Add 200 ml of distilled water to the blender, making sure that the hair is covered with water. […] Transfer the liquid to a fresh tube. Wash the blender and add this, to the tube, as well. Pour the supernatant in 4×50 ml centrifuge tubes and centrifuge at 4300 rpm for 10 mins, 22° C. Pour the pellet on the filters, wash the tube and add this as well. Transfer the supernatant to centrifuge tubes and centrifuge at 4300 rpm for 10 min. Transfer the pellet to a beaker, wash the tube 2-3 times and top with water until 50 ml. Freeze them until solid. Freeze dry them for 24 hours in Modulyo freeze drier. Once dry, weigh amount of cuticle recovered. Final measure is calculated as follows: […] This measure provides the % weight of cuticle abraded from the hair fibres which reflects the state of damage of the hair tested. Thus the greater amount of cuticle recovered the more damaged the tested hair.

Compound: CC(C)CCC[C@@H](C)[C@H]1CC[C@H]2[C@@H]3CC=C4C[C@@H](O)CC[C@]4(C)[C@H]3CC[C@]12C [cholesterol]
- % reduction in damage of hair when cholesterol present (pH 9.7): 3.95%
- % reduction in damage of hair when cholesterol present (pH 10.1): 12.211%
- % reduction in damage of hair when cholesterol present (pH 10.5): 30.902%
